Test results reported in ChEMBL document CHEMBL2034890, “Polyhydroxylated macrolides from Seimatosporium discosioides and their effects on the activation of peroxisome proliferator-activated receptor gamma” (J Nat Prod, 2012).
The source made the active and inactive calls. The rule behind the calls is not given here.

How the values were obtained:
Type in all cases: functional, cell-based
[1] = target: T1, Peroxisome proliferator-activated receptor alpha (Homo sapiens) (UniProt Q07869); test: Agonist activity at human recombinant PPARalpha expressed in CHO cells cotransfected with pGL3-PPRE3-TK-luc reporter assessed as beta-galactosidase activity at 20 uM after 24 hrs by luciferase based transactivation assay
T1 sequence (whole entry): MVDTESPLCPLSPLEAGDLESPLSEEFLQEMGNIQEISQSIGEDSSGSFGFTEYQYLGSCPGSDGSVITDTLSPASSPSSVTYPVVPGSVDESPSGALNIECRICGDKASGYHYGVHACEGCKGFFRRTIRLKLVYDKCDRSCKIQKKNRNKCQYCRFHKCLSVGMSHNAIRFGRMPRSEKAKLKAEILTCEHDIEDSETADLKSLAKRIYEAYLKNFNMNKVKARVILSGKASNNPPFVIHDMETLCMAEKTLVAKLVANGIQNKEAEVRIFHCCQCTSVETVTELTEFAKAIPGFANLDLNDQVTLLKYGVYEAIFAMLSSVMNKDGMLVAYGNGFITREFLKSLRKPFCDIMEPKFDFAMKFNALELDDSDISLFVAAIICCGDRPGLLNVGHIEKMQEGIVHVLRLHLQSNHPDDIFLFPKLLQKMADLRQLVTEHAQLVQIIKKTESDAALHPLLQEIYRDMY

[2] = target: T2, Peroxisome proliferator-activated receptor gamma (Homo sapiens) (UniProt P37231); test: Agonist activity at PPARgamma in human HepG2 cells assessed as downregulation of glucose-6-phosphatase mRNA at 0.5 to 12.5 uM by RT-PCR analysis
T2 sequence (whole entry): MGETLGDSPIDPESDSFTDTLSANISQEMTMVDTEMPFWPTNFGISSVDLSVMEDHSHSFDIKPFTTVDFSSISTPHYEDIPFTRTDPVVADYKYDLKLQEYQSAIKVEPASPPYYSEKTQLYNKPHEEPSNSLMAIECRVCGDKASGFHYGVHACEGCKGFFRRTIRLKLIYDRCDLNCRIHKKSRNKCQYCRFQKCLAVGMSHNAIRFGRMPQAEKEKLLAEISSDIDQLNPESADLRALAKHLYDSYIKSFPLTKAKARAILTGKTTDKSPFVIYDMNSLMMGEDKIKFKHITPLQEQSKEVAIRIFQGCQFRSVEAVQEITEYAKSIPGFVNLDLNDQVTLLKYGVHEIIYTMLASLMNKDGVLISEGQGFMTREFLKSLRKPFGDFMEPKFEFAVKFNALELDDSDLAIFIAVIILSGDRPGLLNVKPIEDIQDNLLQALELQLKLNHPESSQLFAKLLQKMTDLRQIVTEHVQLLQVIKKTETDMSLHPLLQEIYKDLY

[3] = target: T3, Peroxisome proliferator-activated receptor delta (Homo sapiens) (UniProt Q03181); test: Agonist activity at human recombinant PPARbeta expressed in CHO cells cotransfected with pGL3-PPRE3-TK-luc reporter assessed as beta-galactosidase activity at 20 uM after 24 hrs by luciferase based transactivation assay
T3 sequence (whole entry): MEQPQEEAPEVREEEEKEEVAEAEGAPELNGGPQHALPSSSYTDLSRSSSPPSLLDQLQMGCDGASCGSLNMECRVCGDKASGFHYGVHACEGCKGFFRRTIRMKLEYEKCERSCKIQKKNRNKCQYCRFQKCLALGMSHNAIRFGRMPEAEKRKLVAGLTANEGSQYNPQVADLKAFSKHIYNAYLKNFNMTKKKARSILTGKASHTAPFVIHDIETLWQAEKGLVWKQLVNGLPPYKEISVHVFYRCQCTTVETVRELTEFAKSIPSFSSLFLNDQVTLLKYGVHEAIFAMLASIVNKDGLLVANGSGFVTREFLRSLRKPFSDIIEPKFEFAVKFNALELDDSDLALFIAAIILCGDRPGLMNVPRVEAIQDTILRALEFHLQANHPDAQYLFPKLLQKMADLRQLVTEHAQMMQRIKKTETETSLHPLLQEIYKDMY

[4] = target: T2, Peroxisome proliferator-activated receptor gamma (Homo sapiens); test: Agonist activity at PPARgamma in human HepG2 cells assessed as change in stearoyl CoA desaturase 1 mRNA at 0.5 to 12.5 uM by RT-PCR analysis
[5] = target: T2, Peroxisome proliferator-activated receptor gamma (Homo sapiens); test: Agonist activity at PPARgamma in human HepG2 cells assessed as up-regulation of PPARgamma mRNA at 0.5 to 12.5 uM by RT-PCR analysis relative to control
[6] = target: T4, Peroxisome proliferator-activated receptor gamma (Homo sapiens, UniProt P37231); test: (§1) Agonist activity at human recombinant PPARgamma expressed in CHO cells cotransfected with pGL3-PPRE3-TK-luc reporter assessed as beta-galactosidase activity at after 24 hrs by luciferase based transactivation assay
T4 sequence (P37231 whole entry): T2 sequence (whole entry)

[7] = target: T2, Peroxisome proliferator-activated receptor gamma (Homo sapiens); test: Agonist activity at PPARgamma in human HepG2 cells assessed as downregulation of phosphoenolpyruvate carboxykinase mRNA at 0.5 to 12.5 uM by RT-PCR analysis
[8] = target: T2, Peroxisome proliferator-activated receptor gamma (Homo sapiens); test: Agonist activity at PPARgamma in human HepG2 cells assessed as up-regulation of PPARgamma mRNA expression by RT-PCR analysis
[9] = target: T2, Peroxisome proliferator-activated receptor gamma (Homo sapiens); test: as §1

Row | SMILES | Activity [1] | Activity [2] | Activity [3] | Activity [4] | fold change (FC) [5] | EC50 [6] | Activity [7] | Activity [8] | Activity [9]
1 | CCCCCCCCC[C@H]1C[C@@H](O)[C@H](O)/C=C/[C@H](O)CC(=O)O1 [SEIMATOPOLIDE A] | inactive | Active | inactive | inactive | 2 | 1.15 µM | Active | Dose-dependent effect | –
2 | CCCCCCCCC[C@H]1CC[C@H](O)/C=C/[C@H](O)CC(=O)O1 [SEIMATOPOLIDE B] | inactive | – | inactive | – | – | 11.1 µM | – | – | –
3 | COc1cc(O)c2c(c1)[C@@H](O)[C@@]1(O)COC[C@H]1C2=O | inactive | – | inactive | – | – | – | – | – | inactive
4 | COc1cc(O)c2c(c1)C(=O)c1cocc1C2=O | inactive | – | inactive | – | – | – | – | – | inactive
5 | COc1cc(O)c2c(c1)[C@@H](O)[C@@]13CO[C@@H](O)[C@@]1(O3)C2=O | inactive | – | inactive | – | – | – | – | – | inactive
